Results from patent US7745424B2, “Alkane diol derivatives as therapeutic agents for the treatment of bone conditions” (The Univeristy Court of the University of Aberdeen, priority 2001, dated 2010).

Experiments:
[1] = system: macrophage cell line J774; experiment: MTT macrophage J774 viability assay; type: cell-based; conditions: for IC50: Mus musculus, macrophage J774 viability; for IC50 / macrophage J774 viability, activity in words: MTT assay; for macrophage J774 viability, activity in words: range of concentrations (FIGS. 4-7)
Method: MTT (3-(4,5-dimethylthiazol-2-yl)-2,5-diphenyl tetrazolium bromide) has an […] colour and is soluble in the medium used for cell culture. The mitochondrial enzyme succinate dehydrogenase acts upon MTT in living cells to produce the insoluble purple coloured formazan. The amount of formazan produced, as measured by UV/visible spectroscopy, is proportional to the number of viable cells.
The medium was carefully removed using a needle without dislodging the crystal layer. 100 μL acidified isopropanol (4 M HCl 1:100 v/v in isopropanol) was added to each well and the purple crystals allowed to dissolve. The absorbance was measured in a plate reader at 540 nm, with 690 nm as reference. The controls were a deep purple colour, indicating a high number of live cells.
Addition of Compounds. […] These stock solutions were then diluted 100× in culture medium.

[2] = system: macrophage cell line J774; experiment: Alamar Blue macrophage J774 viability assay; conditions: Mus musculus, J774, 72 h, read-out: IC50 (μM) Alamar Blue

Compound | IC50 [1] [µM] | IC50 [2] [µM] | further results
CC(=O)OCCCCOC(C)=O [ABD-0006, 1,4-Butanediol di(acetic acid)Ester] | > 100 | – | –
CCCC(=O)OCCCCOC(=O)CCC [ABD-0007, 1,4-Butanediol di(butanoic acid)Ester] | > 100 | – | –
O=C(OCCCCO)c1ccccc1 [ABD-0008, 1,4-Butanediol mono(benzoic acid)Ester] | > 100 | – | –
O=C(OCCCCOC(=O)c1ccccc1)c1ccccc1 [ABD-0009, 1,4-Butanediol di(benzoic acid)Ester] | > 100 | – | –
O=C(Cc1ccccc1)OCCCCOC(=O)Cc1ccccc1 [ABD-0014, 1,4-Butanediol di(phenylacetic acid)Ester] | > 100 | – | –
O=C(Cc1ccccc1)OCCCCCCOC(=O)Cc1ccccc1 [ABD-0017, 1,6-Hexanediol di(phenylacetic acid)Ester] | > 100 | – | –
O=C(OCCCCOC(=O)C1CCCCC1)C1CCCCC1 [ABD-0019, 1,4-Butanediol di(cyclclohexanecarboxylic acid)Ester] | > 100 | – | –
O=C(OCCCCO)C(c1ccccc1)(c1ccccc1)c1ccccc1 [ABD-0028, 1,4-Butandiol mono(triphenylacetic acid)Ester] | 20 | 30 | macrophage J774 viability, activity in words [1]: more potent
O=C(OCCCCCO)C(c1ccccc1)(c1ccccc1)c1ccccc1 [ABD-0030, 1,5-Pentandiol mono(triphenylacetic acid)Ester] | 40 | – | –
O=C(OCCCCCCO)C(c1ccccc1)(c1ccccc1)c1ccccc1 [ABD-0031, 1,6-Hexandiol mono(triphenylacetic acid)Ester] | 40 | – | –
O=C(Cc1cccc2ccccc12)OCCCCO [ABD-0032, 1,4-Butanediol mono(naphth-1-yl-acetic acid)Ester] | > 100 | – | activity at 100 μM concentration [1]: little activity
COc1ccc(CC(=O)OCCCCO)cc1OC [ABD-0033, 1,4-Butanediol mono(homoveratric acid)Ester] | > 100 | – | activity at 100 μM concentration [1]: little activity
O=C(OCCCCO)c1ccc(Cc2ccccc2)cc1 [ABD-0034, 1,4-Butanediol mono(4-benzylbenzoic acid)Ester] | > 100 | – | activity at 100 μM concentration [1]: little activity
CCCCOC(=O)C(C)c1ccc(CC(C)C)cc1 (stereo not drawn) [ABD-0035, Butyl [2-(4-isobutylphenyl)Propionic acid] ester] | 72 | – | –
CC(C)Cc1ccc(C(C)C(=O)OCCCCO)cc1 (stereo not drawn) [ABD-0036, 1,4-Butanediol mono[2-(4-isobutylphenyl)Propionic acid]ester] | 52 | – | macrophage J774 viability, activity in words [1]: most active
CC(C)Cc1ccc(C(C)C(=O)OCCCO)cc1 (stereo not drawn) [ABD-0037, 1,3-Propanediol mono[2-(4-isobutylphenyl)Propionic acid]ester] | 72 | – | –
CC(C)Cc1ccc(C(C)C(=O)OCCCCCO)cc1 (stereo not drawn) [ABD-0038, 1,5-Pentanediol mono[2-(4-isobutylphenyl)Propionic acid]ester] | 68 | – | –
CC(C)Cc1ccc(C(C)C(=O)OCCCCCCO)cc1 (stereo not drawn) [ABD-0039, 1,6-Hexanediol mono[2-(4-isobutylphenyl)Propionic acid]ester] | 72 | – | –
CCCCOC(=O)Cc1ccc(-c2ccccc2)cc1 [ABD-0040, Butyl (biphenyl-4-yl-acetic acid) ester] | > 100 | – | –
O=C(Cc1ccc(-c2ccccc2)cc1)OCCCO [ABD-0041, 1,3-Propanediol mono(biphenyl-4-yl-acetic acid)Ester] | 75 | – | –
O=C(Cc1ccc(-c2ccccc2)cc1)OCCCCO [ABD-0042, 1,4-Butanediol mono(biphenyl-4-yl-acetic acid)Ester] | 45 | 45 | macrophage J774 viability, activity in words [1]: very active
O=C(Cc1ccc(-c2ccccc2)cc1)OCCCCCO [ABD-0043, 1,5-Pentanediol mono(biphenyl-4-yl-acetic acid)Ester] | > 100 | – | –
O=C(Cc1ccc(-c2ccccc2)cc1)OCCCCCCO [ABD-0044, 1,6-Hexanediol mono(biphenyl-4-yl-acetic acid)Ester] | 28 | – | macrophage J774 viability, activity in words [1]: very active
CC(=O)OCCCCOC(=O)c1ccc(-c2ccccc2)cc1 [ABD-0049, Biphenyl-4-carboxylic acid (4-acetoxy)butyl ester] | – | 50 | –
COCCCCOC(=O)c1ccc(-c2ccccc2)cc1 [ABD-0050, 4-Methoxybutyl (biphenyl-4-carboxylic acid) ester] | – | > 100 | –
CCCCOC(=O)c1ccc(-c2ccccc2)cc1 [ABD-0053, Butyl (biphenyl-4-carboxylic acid) ester] | > 100 | – | macrophage J774 viability, activity in words [1]: very little activity

Compound | IC50 [1] [µM] | IC50 [2] [µM] | further results
O=C(OCCCCCO)c1ccc(-c2ccccc2)cc1 [ABD-0055, 1,5-Pentanediol mono(biphenyl-4-carboxylic acid)Ester] | 65 | – | –
O=C(OCCCO)c1ccc(-c2ccccc2)cc1 [ABD-0057, 1,3-Propanediol mono(biphenyl-4-carboxylic acid)Ester] | > 100 | – | –
O=C(OCCCCO)c1ccccc1-c1ccccc1 [ABD-0059, 1,4-Butanediol (biphenyl-2-carboxylic acid) ester] | > 100 | – | activity at 100 μM concentration [1]: little activity
O=C(OCCCCO)c1ccc(I)cc1 [ABD-0069, 1,4-Butanediol mono(4-iodobenzoic acid)Ester] | – | 90 | –
Cc1ccc(-c2ccc(C(=O)OCCCCO)cc2)cc1 [ABD-0070, 1,4-Butanediol mono(4′-methyl-biphenyl-4-carboxylic acid)Ester] | – | > 100 | –
O=C(OCCCCO)c1ccc(-c2ccc(O)cc2)cc1 [ABD-0072, 1,4-Butanediol mono(4′-hydroxy-biphenyl-4-carboxylic acid)Ester] | – | 45 | –
O=C(OCCCCO)c1c(F)c(F)c(F)c(F)c1F [ABD-0077, 1,4-Butanediol mono(pentafluorobenzoic acid)Ester] | – | 25 | –
O=C(OCCCCOC(=O)c1c(F)c(F)c(F)c(F)c1F)c1c(F)c(F)c(F)c(F)c1F [ABD-0085, 1,4-Butanediol di(pentafluorobenzoic acid)Ester] | – | 4 | –
O=C(OCCCCBr)c1ccc(-c2ccccc2)cc1 [ABD-0086, 4-Bromobutyl (biphenyl-4-carboxylic acid) ester] | – | > 100 | –
O=C(OCCCCO[N+](=O)[O-])c1ccc(-c2ccccc2)cc1 [ABD-0087, 4-Nitrooxybutyl (biphenyl-4-carboxylic acid) ester] | – | 30 | –
Cc1ccc(-c2ccc(C(=O)OCCCCO)cc2)cc1C [ABD-0089, 1,4-Butanediol mono(3′,4′-dimethyl-biphenyl-4-carboxylic acid)Ester] | – | 9 | –
CCCCCOC(=O)c1ccc(-c2ccccc2)cc1 [ABD-0090, Pentyl (biphenyl-4-carboxylic acid) ester] | – | 45 | –
CCc1ccc(-c2ccc(C(=O)OCCCCO)cc2)cc1 [ABD-0094, 1,4-Butanediol mono(4′-ethyl-biphenyl-4-carboxylic acid)Ester] | – | > 100 | –
O=C(OCC(F)(F)C(F)(F)CO)c1ccc(-c2ccccc2)cc1 [ABD-0095, 2,2,3,3-Tetrafluoro-butane-1,4-diol mono(biphenyl-4-carboxylic acid)Ester] | – | 40 | –
COc1ccc(-c2ccc(C(=O)OCCCCO)cc2)cc1 [ABD-0097, 1,4-Butanediol mono(4′-methoxy-biphenyl-4-carboxylic acid)Ester] | – | > 100 | –
O=C(OCCCCO)c1ccc(-c2ccccc2[N+](=O)[O-])cc1 [ABD-0098, 1,4-Butanediol mono(2′-nitro-biphenyl-4-carboxylic acid)Ester] | – | 17 | –
O=C(OCCCCO)c1ccc(-c2ccccc2F)cc1 [ABD-0099, 1,4-Butanediol mono(2′-fluoro-biphenyl-4-carboxylic acid)Ester] | – | 14 | –
O=C(OCCCCO)c1ccc(-c2ccc(F)cc2)cc1 [ABD-0100, 1,4-Butandiol mono(4′-fluoro-biphenyl-4-carboxylic acid)Ester] | – | 14 | –
O=C(OCCCCO)c1ccc(-c2ccc(Br)cc2)cc1 [ABD-0102, 1,4-Butanediol mono(4′-bromo-biphenyl-4-carboxylic acid)Ester] | – | 14 | –
O=C(OCCCCO)c1c(F)ccc(F)c1F [ABD-0106, 1,4-Butanediol mono(2,3,6-trifluorobenzoic acid)Ester] | – | > 100 | –
O=C(OCCCCO)c1ccc(F)c(F)c1 [ABD-0107, 1,4-Butanediol mono(3,4-difluorobenzoic acid)Ester] | – | > 100 | –
O=C(OCCCCO)c1ccc(F)c(F)c1F [ABD-0108, 1,4-Butanediol mono(2,3,4-trifluorobenzoic acid)Ester] | – | > 100 | –
O=C(OCCCCO)c1cc(F)c(F)cc1F [ABD-0109, 1,4-Butanediol mono(2,4,5-trifluorobenzoic acid)Ester] | – | > 100 | –
O=C(OCCCCO)c1ccc(F)cc1F [ABD-0110, 1,4-Butanediol mono(2,4-difluorobenzoic acid)Ester] | – | > 100 | –
O=C(OCCCCOC(=O)c1ccc(F)cc1F)c1ccc(F)cc1F [ABD-0111, 1,4-Butanediol di(2,4-difluorobenzoic acid)Ester] | – | > 100 | –
O=C(O)c1ccc(-c2ccccc2)cc1 [biphenylcarboxylic acid, reference compound] | – | – | macrophage J774 viability, activity in words [1]: not active
